Experimental findings from patent US3985740A, “7-[D-(α-amino-α-phenyl-, 2-thienyl- and 3-thienylacetamido)]-3-(5-methylthiazol-2-yl)carbonylthiomethyl-3-cephem -4-carboxylic acids” (Bristol-Myers Company, priority 1974, dated 1976) are described below.

In brackets after ≈: the same amount, converted by molar mass. Read-outs that look alike come from different tables or passages of the source.

One data set concerns K. pneumoniae A9977. Nature of the data set: M.I.C. by tube dilution. The format is cell-based. The note with it: at 10^-^4 dilution, overnight 37° C.; for MIC: Klebsiella pneumoniae, A9977.
Data set [1] concerns S. aureus methicillin-resistant A15097. Kind of data set: M.I.C. by tube dilution. Conditions: at 10^-^3 dilution, overnight 37° C.; for MIC: Staphylococcus aureus. The format is cell-based.
For the next data set, the system named is Ps. aeruginosa A9843A. Nature of the data set: M.I.C. by tube dilution. It is filed as cell-based. The note with it: Pseudomonas aeruginosa.
The subject of another data set is K. pneumoniae A15130. Kind of data set: M.I.C. by tube dilution. It is filed as cell-based. The note with it: at 10^-^4 dilution, overnight 37° C.; for MIC: Klebsiella pneumoniae, A15130.
A further data set concerns Str. pyogenes A9604. Nature of the data set: M.I.C. by tube dilution. The format is cell-based. The note with it: Streptococcus pyogenes, Str. pyogenes + 5% serum, 50% Nutrient Broth - 45% Antibiotic Assay Broth, overnight 37° C.
In the next data set the test system is S. aureus A9748. Nature of the data set: M.I.C. by tube dilution. Conditions: overnight 37° C.; for MIC: Staphylococcus aureus. It is filed as cell-based.
The next data set deals with Pr. morganii A15153. Nature of the data set: M.I.C. by tube dilution. Conditions: Morganella morganii. The format is cell-based.
The test system of a further data set is Sal. enteritidis A9531. Kind of data set: M.I.C. by tube dilution. The format is cell-based. The note with it: at 10^-^4 dilution, overnight 37° C.; for MIC: Salmonella enterica, ENTERITIDIS
A further data set has as its system E. coli Juhl A15119. Kind of data set: M.I.C. by tube dilution. The format is cell-based. Conditions: Escherichia coli, JUHLA15119.
A further data set deals with Pr. mirabilis A9900. Nature of the data set: M.I.C. by tube dilution. The note with it: at 10^-^4 dilution, overnight 37° C.; for MIC: Proteus mirabilis, A9900. It is filed as cell-based.
The nature of data set [2]: Blood levels in the mouse after oral administration. The note with it: mouse, oral, 100 mgm./kg.; for concentration at 0.5 h / concentration at 1 h / concentration at 2 h / concentration at 3.5 h: blood, 100 mg/kg, read-out: Blood Level; for concentration at 1 h: 1 hr. after administration; for concentration at 2 h: 2 hrs. after administration; for concentration at 3.5 h: 3.5 hrs. after administration. It is filed as in vivo.
Procedure: Blood levels in the mouse after oral administration were
determined with the following results:

For data set [3], the system named is S. aureus BX 1633-2 A9606. Kind of data set: M.I.C. by tube dilution. It is filed as cell-based. The note with it: overnight 37° C.; for MIC: Staphylococcus aureus.
For the next data set, the system named is E. coli A9675. Kind of data set: M.I.C. by tube dilution. The format is cell-based. The note with it: at 10^-^4 dilution, overnight 37° C.; for MIC: Escherichia coli, A9675.
For the next data set, the system named is Ser. marcescens A20019. Nature of the data set: M.I.C. by tube dilution. It is filed as cell-based. Conditions: Serratia marcescens.
Another data set concerns D. pneumoniae A9585. Kind of data set: M.I.C. by tube dilution. The note with it: Streptococcus pneumoniae, D. pneumoniae + 5% serum, 50% Nutrient Broth - 45% Antibiotic Assay Broth, overnight 37° C. The format is cell-based.
A further data set concerns S. aureus Smith A9537. Kind of data set: M.I.C. by tube dilution. The format is cell-based. Conditions: Staphylococcus aureus, overnight 37° C.
Setting [4] is: A9748, at 10^-^2 dilution, read-out: M.I.C.
The mark [5] stands for this setting: A9748, at 10^-^3 dilution, read-out: M.I.C.
Setting [6] is: at 10^-^4 dilution, overnight 37° C., read-out: M.I.C.
The mark [7] stands for this setting: BX16332A9606, at 10^-^2 dilution, read-out: M.I.C.
[8] abbreviates: BX16332A9606, at 10^-^3 dilution, read-out: M.I.C.
Setting [9] is: SMITHA9537, + 50% serum, at 10^-^4 dilution, read-out: M.I.C.
The mark [10] stands for this setting: SMITHA9537, at 10^-^4 dilution, read-out: M.I.C.

`Cc1csc(C(=O)SCC2=C(C(=O)O)N3C(=O)C(NC(=O)[C@H](N)c4ccccc4)[C@H]3SC2)n1` (stereo partly drawn) [Compound 556, 7-[D-α-aminophenylacetamido]-3-(4-methylthiazol-2-yl)carbonylthiomethyl-3-cephem-4-carboxylic acid]: the MIC with K. pneumoniae A9977 (read-out: M.I.C.) worked out at 32 µg/mL (≈ 63.4 µM); in data set [1], 4 µg/mL (≈ 7.93 µM); with Ps. aeruginosa A9843A it was 125 µg/mL (≈ 248 µM); with K. pneumoniae A15130, 125 µg/mL (≈ 248 µM); in the data set with Str. pyogenes A9604 it was 2.5 µg/mL; in the data set with S. aureus A9748 (setting [4]), 8 µg/mL (≈ 15.9 µM). The MIC came out at 4 µg/mL (≈ 7.93 µM) with S. aureus A9748 (setting [5]); 125 µg/mL (≈ 248 µM) against Pr. morganii A15153; 1 µg/mL (≈ 1.98 µM) in the data set with Sal. enteritidis A9531 (read-out: M.I.C.); 32 µg/mL (≈ 63.4 µM) with E. coli Juhl A15119 (setting [6]); 32 µg/mL (≈ 63.4 µM) in the data set with Pr. mirabilis A9900 (read-out: M.I.C.); 4 µg/mL (≈ 7.93 µM) in [3] (setting [7]). Moreover, the MIC in data set [3] (setting [8]) was 1.3 µg/mL (≈ 2.58 µM); in the data set on E. coli A9675 (read-out: M.I.C.), 32 µg/mL (≈ 63.4 µM); in the data set with Ser. marcescens A20019 (setting [6]) it was 63 µg/mL (≈ 125 µM); in the data set with D. pneumoniae A9585, 1.3 µg/mL; with S. aureus Smith A9537 (setting [9]), 63 µg/mL; in the data set on S. aureus Smith A9537 (setting [10]) it was 1.3 µg/mL (≈ 2.58 µM). Further, the concentration at 0.5 h in data set [2] (0.5 hrs. after administration) came out at 15200 ng/mL. In data set [2], the concentration at 1 h is 16200 ng/mL. Moreover, the concentration at 2 h in [2] is 7800 ng/mL. Further, the concentration at 3.5 h in [2] is less than 2100 ng/mL. In addition, in data set [2] (0.5 hrs. after administration), the “Blood Level” value is 15.2 µg/mL.
Take `Cc1nc(C(=O)SCC2=C(C(=O)O)N3C(=O)C(NC(=O)[C@H](N)c4ccccc4)[C@H]3SC2)sc1C` (stereo partly drawn) [Compound 587, 7-[D-α-aminophenylacetamido]-3-(4,5-dimethylthiazol-2-yl)carbonylthiomethyl-3-cephem-4-carboxylic acid]: the MIC with K. pneumoniae A9977 (read-out: M.I.C.) was 32 µg/mL (≈ 61.7 µM); in data set [1], 4 µg/mL (≈ 7.71 µM); against Ps. aeruginosa A9843A it was greater than 125 µg/mL; in the data set with K. pneumoniae A15130, greater than 125 µg/mL; in the data set with Str. pyogenes A9604, 2.5 µg/mL; with S. aureus A9748 (setting [4]), 16 µg/mL (≈ 30.8 µM). Further, the MIC in the data set with S. aureus A9748 (setting [5]) is 4 µg/mL (≈ 7.71 µM); with Pr. morganii A15153, greater than 125 µg/mL; in the data set on Sal. enteritidis A9531 (read-out: M.I.C.), 2.5 µg/mL (≈ 4.82 µM); in the data set on E. coli Juhl A15119 (setting [6]), 16 µg/mL (≈ 30.8 µM); against Pr. mirabilis A9900, greater than 125 µg/mL; in [3] (setting [7]) it was 1 µg/mL (≈ 1.93 µM). Besides, the MIC in data set [3] (setting [8]) was 0.6 µg/mL (≈ 1.16 µM); in the data set with E. coli A9675 (read-out: M.I.C.) it was 32 µg/mL (≈ 61.7 µM); with Ser. marcescens A20019 it was greater than 125 µg/mL; in the data set on D. pneumoniae A9585, 2.5 µg/mL; in the data set with S. aureus Smith A9537 (setting [9]), greater than 63 µg/mL; in the data set with S. aureus Smith A9537 (setting [10]), 0.3 µg/mL (≈ 0.578 µM). In addition, the concentration at 0.5 h in [2] (0.5 hrs. after administration) amounted to 6300 ng/mL. Also, the concentration at 1 h in data set [2] is 8900 ng/mL. In data set [2], the concentration at 2 h came out at 4300 ng/mL. For the same compound, the concentration at 3.5 h in data set [2] came to 2000 ng/mL.
Take `CC1=C(C(=O)O)N2C(=O)[C@@H](NC(=O)[C@H](N)c3ccccc3)[C@H]2SC1` [cephalexin, reference compound]: the MIC against K. pneumoniae A9977 is 8 µg/mL (≈ 23 µM); in [1], 32 µg/mL (≈ 92.1 µM); with Ps. aeruginosa A9843A, greater than 125 µg/mL; with K. pneumoniae A15130 it was 16 µg/mL (≈ 46.1 µM); in the data set with S. aureus A9748 (A9748, at 10^-^2 dilution), 125 µg/mL (≈ 360 µM); in the data set with S. aureus A9748 (A9748, at 10^-^3 dilution), 32 µg/mL (≈ 92.1 µM). Further, the MIC against Pr. morganii A15153 was greater than 125 µg/mL; in the data set on Sal. enteritidis A9531, 4 µg/mL (≈ 11.5 µM); with E. coli Juhl A15119, 8 µg/mL (≈ 23 µM); against Pr. mirabilis A9900 it was 4 µg/mL (≈ 11.5 µM); in [3] (BX16332A9606, at 10^-^2 dilution), 8 µg/mL (≈ 23 µM); in [3] (BX16332A9606, at 10^-^3 dilution), 4 µg/mL (≈ 11.5 µM). For the same compound, the MIC in the data set with E. coli A9675 is 16 µg/mL (≈ 46.1 µM); in the data set on Ser. marcescens A20019 it was greater than 125 µg/mL; with S. aureus Smith A9537 (SMITHA9537, + 50% serum, at 10^-^4 dilution), 2.5 µg/mL. Also, the M.I.C. in the data set with K. pneumoniae A9977 was 4 µg/mL; in data set [1], 63 µg/mL; in the data set with K. pneumoniae A15130, 32 µg/mL; in the data set with S. aureus A9748 (at 10^-^2 dilution), 63 µg/mL; with S. aureus A9748 (at 10^-^3 dilution), 63 µg/mL; in the data set with Sal. enteritidis A9531 it was 2 µg/mL. The M.I.C. came out at 8 µg/mL in the data set on Pr. mirabilis A9900, 4 µg/mL in [3] (at 10^-^2 dilution), 2 µg/mL in data set [3] (at 10^-^3 dilution) and 32 µg/mL with E. coli A9675.
